Laboratory results: patent publication EP4768499A1, “MACROCYCLIC PEPTIDE COMPOUND HAVING CELL MEMBRANE PERMEABILITY AND METABOLIC STABILITY, AND LIBRARY CONTAINING SAME” (Chugai Seiyaku Kabushiki Kaisha, priority 2023, dated 2025)
Starred links: 1 amine or outer side, 2 acyl side, 3 side chain; linkers in the order of their positions; H or OH if unused. Positions of bridges follow the written chain, without caps; N, C: chain ends. Non-standard residues stand in square brackets, D forms with d. Residues, ends and D or L forms follow the SMILES beside them. *: point of attachment. NMedβ3hAla = C[C@H](CC(=O)[*:2])N(C)[*:1]; NMeF = CN[C@@H](Cc1ccccc1)C(=O)O; NMeGABA = CN(CCCC(=O)[*:2])[*:1]; NMeI = CC[C@H](C)[C@H](NC)C(=O)O; NMeT = CN[C@H](C(=O)O)[C@@H](C)O; NMeβAla = CN(CCC(=O)[*:2])[*:1]; NMeD = CN[C@@H](CC(=O)O)C(=O)O; NMeL = CN[C@@H](CC(C)C)C(=O)O; NMeV = CN[C@H](C(=O)O)C(C)C; NMeAbu = CC[C@H](NC)C(=O)O; NMeA = CN[C@@H](C)C(=O)O; Piperidide = C1CCN(*)CC1; dNMeA = CN[C@H](C)C(=O)O; Abu = CC[C@H](N)C(=O)O; NBuGly = CCCCNCC(=O)O; βAla = NCCC(=O)O; Sar = CNCC(=O)O; tBu = CC(C)(C)*

Tests used:
[1] = Membrane permeability test using Caco-2 cells with preincubation; format: in vitro ADME; conditions: Caco-2; preincubation 20 to 24 hours; Apical FaSSIF/HBSS pH 6.0, Basal HBSS 4% BSA pH 7.4; 180 minutes; read-out: Caco2 Papp
[2] = test system: Caco-2 cells; assay: as above; format: in vitro ADME; conditions: Caco-2 cells, preincubation 20 to 24 hours; apical FaSSIF/HBSS 1% DMSO pH 6.0, basal HBSS 4% BSA pH 7.4; basal sample at 180 minutes
[3] = Metabolic stability test: liver microsomal stability assay; format: in vitro ADME, mouse; conditions: mouse liver microsomes 0.5 mg protein/mL, compound 1 µM; for microsomal CLint at 1 µM: male, pH 7.4, presence of NADPH, read-out: Mouse Hepatic Microsome CLh,int NADPH(+); for Mouse Hepatic Microsome CLh,int NADPH(-): absence of NADPH

CC[C@H](C)[C@@H]1NC(=O)[C@H](CC(C)C)N(C)C(=O)CCCN(C)C(=O)C[C@@H](C)N(C)C(=O)[C@H](CC(C)C)NC(=O)[C@H](CC)N(C)C(=O)[C@H](C(C)C)N(C)C(=O)[C@H](C)N(C)C(=O)[C@H](CC(C)C)N(C)C(=O)[C@H](COC(C)(C)C)NC(=O)[C@H](Cc2ccccc2)N(C)C(=O)[C@H](Cc2ccccc2)N(C)C(=O)CN(C)C1=O [pd143] (cyclo(I[Sar][NMeF][NMeF]S(tBu)[NMeL][NMeA][NMeV][NMeAbu]L[NMedβ3hAla][NMeGABA][NMeL]))
Papp A→B [1]: 4.73 ×10⁻⁶ cm/s | Caco2 Papp (10^-6 cm/sec) [2]: 4.73 10^-6 cm/sec | microsomal CLint at 1 µM [3]: 39.3 µL/min/mg | Mouse Hepatic Microsome CLh,int NADPH(-) [3]: 21.0 µL/min/mg Protein

CC[C@H](C)[C@@H]1NC(=O)[C@H](C)N(C)C(=O)[C@H]([C@@H](C)O)NC(=O)[C@H](CC(C)C)N(C)C(=O)[C@H](COC(C)(C)C)NC(=O)[C@H](Cc2ccccc2)N(C)C(=O)[C@H]([C@@H](C)CC)NC(=O)CNC(=O)[C@H](Cc2ccccc2)N(C)C(=O)[C@H](CC(C)C)N(C)C(=O)CCCN(C)C(=O)C[C@@H](C)N(C)C(=O)[C@H](CC(C)C)NC1=O [pd145] (cyclo(GI[NMeF]S(tBu)[NMeL]T[NMeA]IL[NMedβ3hAla][NMeGABA][NMeL][NMeF]))
Papp A→B [1]: 0.05 ×10⁻⁶ cm/s | Caco2 Papp (10^-6 cm/sec) [2]: 0.05 10^-6 cm/sec | microsomal CLint at 1 µM [3]: 35.5 µL/min/mg | Mouse Hepatic Microsome CLh,int NADPH(-) [3]: 35.7 µL/min/mg Protein

CC[C@@H]1NC(=O)[C@H](Cc2ccccc2)N(C)C(=O)[C@@H]2CCCN2C(=O)[C@H](CC(C)C)N(C)C(=O)[C@H](C(C)C)NC(=O)[C@H](CC(C)C)N(C)C(=O)[C@H]([C@@H](C)O)NC(=O)[C@H](Cc2ccccc2)N(C)C(=O)CN(C)C(=O)C[C@@H](C)N(C)C(=O)[C@H](C(C)C)NC(=O)[C@H](COC(C)(C)C)NC(=O)[C@H](C)N(C)C1=O [pd146] (cyclo([Abu][NMeA]S(tBu)V[NMedβ3hAla][Sar][NMeF]T[NMeL]V[NMeL]P[NMeF]))
Papp A→B [1]: 0.2 ×10⁻⁶ cm/s | Caco2 Papp (10^-6 cm/sec) [2]: 0.20 10^-6 cm/sec | microsomal CLint at 1 µM [3]: 20.3 µL/min/mg | Mouse Hepatic Microsome CLh,int NADPH(-) [3]: 14.1 µL/min/mg Protein

CC[C@H]1C(=O)N[C@@H](COC(C)(C)C)C(=O)N(C)[C@@H](C(C)C)C(=O)N(C)[C@@H](C)C(=O)N(C)[C@H](C)CC(=O)N[C@H](C(C)C)C(=O)N(C)[C@@H](CC(C)C)C(=O)N[C@@H](C)C(=O)N(C)[C@@H](C(C)C)C(=O)N(C)[C@@H](CC(C)C)C(=O)NCC(=O)N(C)[C@@H]([C@@H](C)O)C(=O)N(C)[C@@H](Cc2ccccc2)C(=O)N1C [pd147] (cyclo(A[NMeV][NMeL]G[NMeT][NMeF][NMeAbu]S(tBu)[NMeV][NMeA][NMedβ3hAla][dV][NMeL]))
Papp A→B [1]: 0.26 ×10⁻⁶ cm/s | Caco2 Papp (10^-6 cm/sec) [2]: 0.26 10^-6 cm/sec | microsomal CLint at 1 µM [3]: 13.1 µL/min/mg | Mouse Hepatic Microsome CLh,int NADPH(-) [3]: 14.8 µL/min/mg Protein

CC[C@H](C)[C@@H]1NC(=O)[C@H](CC(C)C)N(C)C(=O)[C@H](C)N(C)C(=O)[C@H](C)NC(=O)C[C@@H](C)N(C)C(=O)[C@H](CC(C)C)N(C)C(=O)[C@H](C)N(C)C(=O)CN(C)C(=O)[C@H]([C@@H](C)O)NC(=O)[C@H](Cc2ccccc2)N(C)C(=O)[C@H](CC(C)C)N(C)C(=O)[C@H](C(C)C)NC(=O)[C@H]([C@@H](C)CC)N(C)C1=O [pd148] (cyclo(A[NMeA][NMeL]I[NMeI]V[NMeL][NMeF]T[Sar][NMeA][NMeL][NMedβ3hAla]))
Papp A→B [1]: 0.12 ×10⁻⁶ cm/s | Caco2 Papp (10^-6 cm/sec) [2]: 0.12 10^-6 cm/sec | microsomal CLint at 1 µM [3]: 25.2 µL/min/mg | Mouse Hepatic Microsome CLh,int NADPH(-) [3]: 16.8 µL/min/mg Protein

CC[C@@H]1NC(=O)[C@H](Cc2ccccc2)N(C)C(=O)[C@@H]2CCCN2C(=O)[C@H](CC(C)C)N(C)C(=O)[C@H](C(C)C)NC(=O)[C@H](CC(C)C)N(C)C(=O)[C@H]([C@@H](C)O)NC(=O)[C@H](Cc2ccccc2)N(C)C(=O)CN(C)C(=O)C[C@@H](C)N(C)C(=O)[C@H](C(C)C)NC(=O)[C@H](CC)N(C)C(=O)[C@H](C)N(C)C1=O [pd149] (cyclo([Abu][NMeA][NMeAbu]V[NMedβ3hAla][Sar][NMeF]T[NMeL]V[NMeL]P[NMeF]))
Papp A→B [1]: 0.2 ×10⁻⁶ cm/s | Caco2 Papp (10^-6 cm/sec) [2]: 0.20 10^-6 cm/sec | microsomal CLint at 1 µM [3]: 10.8 µL/min/mg | Mouse Hepatic Microsome CLh,int NADPH(-) [3]: 1.5 µL/min/mg Protein

CC[C@H]1C(=O)N(C)[C@H](C)CC(=O)N(C)[C@H](C)C(=O)N(C)[C@@H](C)C(=O)N(C)[C@@H](Cc2ccccc2)C(=O)N[C@@H](C(C)C)C(=O)N(C)[C@@H](CC(C)C)C(=O)N(C)[C@@H]([C@@H](C)O)C(=O)N(C)CC(=O)N[C@@H](C)C(=O)N(C)[C@@H](CC(C)C)C(=O)N[C@@H](COC(C)(C)C)C(=O)N(C)[C@@H](Cc2ccccc2)C(=O)N1C [pd150] (cyclo(A[NMeL]S(tBu)[NMeF][NMeAbu][NMedβ3hAla][dNMeA][NMeA][NMeF]V[NMeL][NMeT][Sar]))
Papp A→B [1]: 0.29 ×10⁻⁶ cm/s | Caco2 Papp (10^-6 cm/sec) [2]: 0.29 10^-6 cm/sec | microsomal CLint at 1 µM [3]: 15.2 µL/min/mg | Mouse Hepatic Microsome CLh,int NADPH(-) [3]: 4.2 µL/min/mg Protein

CC[C@H](C)[C@@H]1NC(=O)[C@H]([C@@H](C)CC)N(C)C(=O)[C@@H](C)NC(=O)C[C@@H](C(=O)N2CCCCC2)N(C)C(=O)[C@H](C(C)C)NC(=O)[C@H](Cc2ccccc2)N(C)C(=O)[C@H](COC(C)(C)C)NC(=O)[C@H](CC(C)C)N(C)C(=O)[C@H](C)NC(=O)CN(C)C(=O)[C@H](CC(C)C)N(C)C(=O)[C@H](C)N(C)C(=O)[C@H](Cc2ccccc2)N(C)C1=O [pd151] ([dA][NMeI]I[NMeF][NMeA][NMeL][Sar]A[NMeL]S(tBu)[NMeF]V[NMeD]-Piperidide; lactam N-13)
Papp A→B [1]: 0.39 ×10⁻⁶ cm/s | Caco2 Papp (10^-6 cm/sec) [2]: 0.39 10^-6 cm/sec | microsomal CLint at 1 µM [3]: 29.6 µL/min/mg | Mouse Hepatic Microsome CLh,int NADPH(-) [3]: 22.4 µL/min/mg Protein

CC[C@H](C)[C@@H]1NC(=O)[C@H](Cc2ccccc2)N(C)C(=O)[C@H](CC(C)C)N(C)C(=O)[C@H](CC(C)C)NC(=O)[C@H](C)N(C)C(=O)C[C@@H](C(=O)N2CCCCC2)N(C)C(=O)[C@H](C)N(C)C(=O)[C@H](CC(C)C)NC(=O)[C@H](CC(C)C)N(C)C(=O)CNC(=O)[C@H]([C@@H](C)CC)N(C)C(=O)[C@H](Cc2ccccc2)N(C)C(=O)[C@H](C)NC1=O [pd152] ([NMeA]L[NMeL][NMeF]IA[NMeF][NMeI]G[NMeL]L[NMeA][NMeD]-Piperidide; lactam N-13)
Papp A→B [1]: 1.02 ×10⁻⁶ cm/s | Caco2 Papp (10^-6 cm/sec) [2]: 1.02 10^-6 cm/sec | microsomal CLint at 1 µM [3]: 40.2 µL/min/mg | Mouse Hepatic Microsome CLh,int NADPH(-) [3]: 32.5 µL/min/mg Protein

CC[C@H](C)[C@@H]1NC(=O)[C@H]([C@@H](C)CC)N(C)C(=O)[C@@H](C)NC(=O)C[C@@H](C(=O)N2CCCCC2)N(C)C(=O)[C@H](Cc2ccccc2)N(C)C(=O)[C@H](C(C)C)NC(=O)[C@H](C)N(C)C(=O)[C@H](CC(C)C)N(C)C(=O)[C@H](C)NC(=O)CN(C)C(=O)[C@H](CC(C)C)N(C)C(=O)[C@H](C)N(C)C(=O)[C@H](Cc2ccccc2)N(C)C1=O [pd153] ([dA][NMeI]I[NMeF][NMeA][NMeL][Sar]A[NMeL][NMeA]V[NMeF][NMeD]-Piperidide; lactam N-13)
Papp A→B [1]: 0.2 ×10⁻⁶ cm/s | Caco2 Papp (10^-6 cm/sec) [2]: 0.20 10^-6 cm/sec | microsomal CLint at 1 µM [3]: 15.1 µL/min/mg | Mouse Hepatic Microsome CLh,int NADPH(-) [3]: 26.0 µL/min/mg Protein

CCCCN1CC(=O)N(C)[C@@H](Cc2ccccc2)C(=O)N[C@@H](COC(C)(C)C)C(=O)N(C)[C@@H](CC(C)C)C(=O)NCCC(=O)N(C)[C@@H](C)C(=O)N(C)[C@@H]([C@@H](C)CC)C(=O)N[C@@H](CC(C)C)C(=O)N(C)[C@H](C(=O)N2CCCCC2)CC(=O)N(C)CCC(=O)N(C)[C@@H](CC(C)C)C(=O)N[C@@H]([C@@H](C)CC)C(=O)N(C)[C@@H](Cc2ccccc2)C1=O [pd154] ([NMeβAla][NMeL]I[NMeF][NBuGly][NMeF]S(tBu)[NMeL][βAla][NMeA][NMeI]L[NMeD]-Piperidide; lactam N-13)
Papp A→B [1]: 0.82 ×10⁻⁶ cm/s | Caco2 Papp (10^-6 cm/sec) [2]: 0.82 10^-6 cm/sec | microsomal CLint at 1 µM [3]: 41.7 µL/min/mg | Mouse Hepatic Microsome CLh,int NADPH(-) [3]: 34.3 µL/min/mg Protein

CC[C@H](C)[C@H]1C(=O)NCC(=O)N(C)[C@@H](CC(C)C)C(=O)N(C)[C@@H](C(C)C)C(=O)N(C)[C@@H](C)C(=O)N(C)[C@H](C(=O)N2CCCCC2)CC(=O)N(C)[C@@H](C)C(=O)N[C@@H](CC(C)C)C(=O)N(C)[C@@H](CC(C)C)C(=O)N[C@@H](COC(C)(C)C)C(=O)N(C)[C@@H](Cc2ccccc2)C(=O)N[C@@H](C)C(=O)N(C)[C@@H](Cc2ccccc2)C(=O)N1C [pd155] ([NMeA]L[NMeL]S(tBu)[NMeF]A[NMeF][NMeI]G[NMeL][NMeV][NMeA][NMeD]-Piperidide; lactam N-13)
Papp A→B [1]: 0.87 ×10⁻⁶ cm/s | Caco2 Papp (10^-6 cm/sec) [2]: 0.87 10^-6 cm/sec | microsomal CLint at 1 µM [3]: 48.8 µL/min/mg | Mouse Hepatic Microsome CLh,int NADPH(-) [3]: 37.2 µL/min/mg Protein

CC[C@H](C)[C@@H]1NC(=O)[C@H](CC(C)C)N(C)C(=O)CN(C)C(=O)C[C@@H](C(=O)N2CCCCC2)N(C)C(=O)CNC(=O)[C@H](C)N(C)C(=O)[C@H](C(C)C)N(C)C(=O)[C@H](C)N(C)C(=O)[C@H](Cc2ccccc2)N(C)C(=O)[C@H](CC(C)C)NC(=O)[C@H](Cc2ccccc2)N(C)C(=O)[C@H](C(C)C)NC(=O)[C@H](CC(C)C)N(C)C1=O [pd156] ([Sar][NMeL]I[NMeL]V[NMeF]L[NMeF][NMeA][NMeV][NMeA]G[NMeD]-Piperidide; lactam N-13)
Papp A→B [1]: 0.39 ×10⁻⁶ cm/s | Caco2 Papp (10^-6 cm/sec) [2]: 0.39 10^-6 cm/sec | microsomal CLint at 1 µM [3]: 34.1 µL/min/mg | Mouse Hepatic Microsome CLh,int NADPH(-) [3]: 23.7 µL/min/mg Protein
